The test system of the assay is Human RSV-A (“Long” strain). The assay is described as follows: RSV-A assay: inhibition of cytopathic effect in Hep-2 cells, ATPlite readout. Type of assay: cell-based, Human respiratory syncytial virus (HRSV). The settings on record: human respiratory syncytial virus, HEp-2, 120 h, read-out: Human RSV-A (“Long” strain) EC50. An excerpt: Hep-2 cells, (originally derived from tumors grown in irradiated-cortisonised weanling rats that had been injected with epidermoid carcinoma tissue from a person's larynx, but later found to be indistinguishable from HeLa cells by PCR DNA analysis), were used for the culturing of genotype A, “Long” strain RSV. Flasks were inoculated with RSV and viral stocks were collected once cytopathic effect (CPE) was greater than 90%. Viral stocks in 25% sucrose media were snap frozen using liquid nitrogen to increase viral stability. Viral stock titers were quantified by tissue culture infectious dose 50% (TCID50) using 8,000 cells per well and 3-fold viral dilutions across a 96-well plate, cultured for 4 days. Viral stock titers were also quantified by a plaque forming unit assay, as described elsewhere.
Following extensive parameter testing, the final assay is run as follows: Hep-2 cells are seeded into the inner 60 wells of a 96-well plate at 8,000 cells per well in a volume of 50 μL using Growth Media (DMEM without phenol red, 1% L-Glut, 1% Penn/Strep, 1% nonessential amino acids, 10% heat-inactivated FBS). 2-fold serial dilutions of control and test compounds are added to the wells in duplicate in a total volume of 25 μL. Viral stock is then added to the wells at a multiplicity of infection (MOI) of 0.1 in a volume of 25 μL, bringing the total volume of each well to 100 μL. The MOI is calculated using the PFU/mL, or TCID50 if unavailable. Each 96-well plate has a control column of 6 wells with cells and virus but no compound (negative control, max CPE), a column with cells but no compound or virus (positive control, minimum CPE), and a column with no cells or virus or compound (background plate/reagent control). The control wells with cells but no virus are given an additional 25 uL of growth media containing an equal quantity of sucrose as those wells receiving the viral stock in order to keep consistent in media and volume conditions. The outer wells of the plate are filled with 125 μL of moat media (DMEM, 1% Penn/Strep) to act as a thermal and evaporative moat around the test wells. Following a 5-day incubation period, the plates are read using ATPlite (50 uL added per well), which quantifies the amount of ATP (a measure of cell health) present in each well. Assay plates are read using the Envision luminometer. In parallel, cytotoxicity is examined on an additional 96-well plate treated in an identical manner, but substituting the 25 μL of viral stock for 25 μL of growth media. […] EC50 ranges are as follows: A<0.4 μM; B 0.4-0.8 μM; C>0.8 μM and CC50 ranges are as follows: A>50 μM; B 10-50 μM; C<10 μM.
A general note: Protection from cytopathic effect is a common read-out in antiviral testing.

pEC50: −log10 of the molar value.

49 compounds from US11390631B1, “Benzodiazepine derivatives as RSV inhibitors” (priority 2015, dated 2022) can be followed below.

One may read the pEC50 as −log10 of the EC50, conventionally taken in molar units. `O=C1Nc2ccccc2C(c2ccccc2)=NC1Nc1nnc(-c2ccc(OC3CCOCC3)cc2)o1` (stereo not shown) [Example 220]: the pEC50 is less than 6.10.
On to `O=C1Nc2ccccc2C(c2ccccc2)=NC1Nc1nnc(C2CCNC2)o1` (stereo not shown) [Example 221], for which the pEC50 is less than 6.10.
Under `O=C1Nc2ccccc2C(c2ccccc2)=NC1Nc1nnc(C2CC3(CCNCC3)C2)o1` (stereo not shown) [Example 222] stands less than 6.10; under `CC1(c2nnc(NC3N=C(c4ccccc4)c4ccccc4NC3=O)o2)CCNC1` (stereo not shown) [Example 223], less than 6.10.
The result for `O=C1Nc2ccccc2C(c2ccccc2)=NC1Nc1nnc(-c2ccc(-n3cncn3)nc2)o1` (stereo not shown) [Example 225] reads less than 6.10.
The result for `O=C1Nc2ccccc2C(c2ccccc2)=NC1Nc1nnc(-c2ccccc2-c2ccncc2)o1` (stereo not shown) [Example 226] reads less than 6.10; that for `O=C1Nc2ccccc2C(c2ccccc2)=NC1Nc1nnc([C@@H]2CCCN2C2CCNCC2)o1` (stereo partly shown) [Example 227], less than 6.10.
Regarding `CN1CCC(N2CCC[C@H]2c2nnc(NC3N=C(c4ccccc4)c4ccccc4NC3=O)o2)CC1` (stereo partly shown) [Example 228], the pEC50 was less than 6.10.
`COCCOc1ccccc1-c1nnc(NC2N=C(c3ccccc3)c3ccccc3NC2=O)o1` (stereo not shown) [Example 229]: the pEC50 was less than 6.10.
The result for `CC1(Nc2nnc(-c3ccc(F)cc3)o2)N=C(c2ccccc2)c2ccccc2NC1=O` (stereo not shown) [Example 230] reads less than 6.10; that for `O=C1Nc2ccccc2C(c2ccccc2)=NC1Nc1nnc(-c2ccc(-n3ccnc3)cc2)o1` (stereo not shown) [Example 231], more than 6.40; that for `O=C1Nc2ccccc2C(c2ccccc2)=NC1Nc1nnc(-c2ccc(-n3ccnc3)nc2)o1` (stereo not shown) [Example 232], less than 6.10.
The result for `O=C1Nc2ccccc2C(c2ccccc2)=NC1Nc1nnc(-c2ccc(-n3cnnc3)cc2)o1` (stereo not shown) [Example 233] reads less than 6.10.
With `CN(C)CCOc1ccccc1-c1nnc(NC2N=C(c3ccccc3)c3ccccc3NC2=O)o1` (stereo not shown) [Example 234], the pEC50 is less than 6.10.
For `O=C1Nc2ccccc2C(c2ccccc2)=NC1Nc1nnc(-c2ccccc2NCc2ccccn2)o1` (stereo not shown) [Example 235], the pEC50 is less than 6.10.
Turning to `COCCOc1ccc(-c2nnc(NC3N=C(c4ccccc4)c4ccccc4NC3=O)o2)cc1` (stereo not shown) [Example 236], the negative logarithm of the EC50 (pEC50) was less than 6.10.
The result for `CN1CCN(c2ncccc2-c2nnc(NC3N=C(c4ccccc4)c4ccccc4NC3=O)o2)CC1` (stereo not shown) [Example 237] reads less than 6.10.
The result for `CN[C@H](c1ccccc1)c1nnc(NC2N=C(c3ccccc3)c3ccccc3NC2=O)o1` (stereo partly shown) [Example 238] reads less than 6.10; that for `O=C1Nc2ccccc2C(c2ccccc2)=NC1Nc1nnc(-c2ccccc2OC2CCOCC2)o1` (stereo not shown) [Example 239], less than 6.10; that for `O=C1Nc2ccccc2C(c2ccccc2)=NC1Nc1nnc(-c2ccccc2N2CCS(=O)(=O)CC2)o1` (stereo not shown) [Example 240], less than 6.10.
Under `O=C1Nc2ccccc2C(c2ccccc2)=NC1Nc1nnc(-c2cccnc2N2CCCCC2)o1` (stereo not shown) [Example 241] stands less than 6.10; under `C[C@@H]1CN(c2ccc(-c3nnc(N[C@H]4N=C(c5ccccc5)c5ccccc5NC4=O)o3)c(Cl)c2)C[C@H](C)O1` [Example 243], less than 6.10.
For `O=C1Nc2ccccc2C(c2ccccc2)=N[C@@H]1Nc1nnc(-c2ccc(N3C4CCC3COC4)cc2Cl)o1` [Example 244], the pEC50 was less than 6.10.
Take `O=C1Nc2ccccc2C(c2ccccc2)=NC1Nc1nnc(-c2cccnc2N2CCCC(F)(F)C2)o1` (stereo not shown) [Example 246]: the pEC50 is less than 6.10.
Regarding `CO[C@H]1CCN(c2ncccc2-c2nnc(NC3N=C(c4ccccc4)c4ccccc4NC3=O)o2)C1` (stereo partly shown) [Example 247], the pEC50 was less than 6.10.
For the compound `O=C1Nc2ccccc2C(c2ccccc2)=NC1Nc1nnc(-c2cccnc2N2C[C@@H]3C[C@H]2CO3)o1` (stereo partly shown) [Example 248], the pEC50 is less than 6.10.
The result for `COC1CCN(c2ncccc2-c2nnc(NC3N=C(c4ccccc4)c4ccccc4NC3=O)o2)CC1` (stereo not shown) [Example 254] reads less than 6.10.
The result for `O=C1Nc2ccccc2C(c2ccccc2)=NC1Nc1nnc(-c2cccnc2N2CCC(O)CC2)o1` (stereo not shown) [Example 255] reads less than 6.10; that for `O=C1Nc2ccccc2C(c2ccccc2)=NC1Nc1nnc(-c2cccnc2N2CCC(F)CC2)o1` (stereo not shown) [Example 256], less than 6.10; that for `COC1CN(c2ncccc2-c2nnc(NC3N=C(c4ccccc4)c4ccccc4NC3=O)o2)C1` (stereo not shown) [Example 258], less than 6.10.
The result for `O=C1Nc2ccccc2C(c2ccccc2)=NC1Nc1nnc(-c2cccnc2N2CC(F)(F)C2)o1` (stereo not shown) [Example 259] reads less than 6.10; that for `N#CC1CCN(c2ncccc2-c2nnc(NC3N=C(c4ccccc4)c4ccccc4NC3=O)o2)CC1` (stereo not shown) [Example 260], less than 6.10; that for `C[C@H]1COCCN1c1ncccc1-c1nnc(NC2N=C(c3ccccc3)c3ccccc3NC2=O)o1` (stereo partly shown) [Example 261], less than 6.10.
As to `C[C@@H]1CN(c2ncccc2-c2nnc(NC3N=C(c4ccccc4)c4ccccc4NC3=O)o2)CCO1` (stereo partly shown) [Example 262], the pEC50 is less than 6.10.
Under `O=C1Nc2ccccc2C(c2ccccc2)=NC1Nc1nnc(-c2cccnc2N2C[C@H]3C[C@@H]2CO3)o1` (stereo partly shown) [Example 264] stands less than 6.10; under `O=C1Nc2ccccc2C(c2ccccc2)=NC1Nc1nnc(-c2cccnc2N2C3CCC2COC3)o1` (stereo not shown) [Example 265], less than 6.10; under `O=C1Nc2ccccc2C(c2ccccc2)=NC1Nc1nnc(-c2cccnc2N2CC3CCC(C2)O3)o1` (stereo not shown) [Example 266], 6.10 to 6.40.
Under `O=C1Nc2ccccc2C(c2ccccc2)=NC1Nc1nnc(-c2cccnc2N2C[C@H]3COC[C@H]3C2)o1` (stereo partly shown) [Example 267] stands less than 6.10; under `O=C1Nc2ccccc2C(c2ccccc2)=N[C@@H]1Nc1nnc(-c2cccnc2N2CCn3ncnc3C2)o1` [Example 270], less than 6.10.
As for `COC1CN(c2cc(C(F)(F)F)cnc2-c2nnc(N[C@H]3N=C(c4ccccc4)c4ccccc4NC3=O)o2)C1` [Example 271], the pEC50 was less than 6.10.
The result for `O=C1Nc2ccccc2C(c2ccccc2)=NC1Nc1nnc(-c2ccc(-n3cncn3)cc2)o1` (stereo not shown) [Example 273] reads 6.10 to 6.40.
In the case of `N#CC1CN(c2ncccc2-c2nnc(NC3N=C(c4ccccc4)c4ccccc4NC3=O)o2)C1` (stereo not shown) [Example 274], the pEC50 was less than 6.10.
As for `O=C1Nc2ccccc2C(c2ccccc2)=N[C@@H]1Nc1nnc(-c2ccc(C(F)(F)F)nc2N2C3CCC2COC3)o1` [Example 275], the pEC50 is less than 6.10.
As for `Cc1ccc(-c2nnc(N[C@H]3N=C(c4ccccc4)c4ccccc4NC3=O)o2)c(N2CC3CCC(C2)O3)n1` [Example 279], the pEC50 was more than 6.40.
Under `Cc1ccc(-c2nnc(N[C@H]3N=C(c4ccccc4)c4ccccc4NC3=O)o2)c(N2C3CCC2COC3)n1` [Example 280] stands more than 6.40.
Consider `N#Cc1ccc(-c2nnc(N[C@H]3N=C(c4ccccc4)c4ccccc4NC3=O)o2)c(N2CC3CCC(C2)O3)c1` [Example 281], for which the pEC50 is more than 6.40.
The result for `O=C1Nc2ccccc2C(c2ccccc2)=N[C@@H]1Nc1nnc(-c2ncc(C(F)(F)F)cc2-c2ccncc2)o1` [Example 282] reads less than 6.10; that for `O=C1Nc2ccccc2C(c2ccccc2)=NC1Nc1nnc(-c2ccccc2-n2cccn2)o1` (stereo not shown) [Example 283], less than 6.10; that for `C[C@@H]1CN(c2cc(F)ccc2-c2nnc(N[C@H]3N=C(c4ccccc4)c4ccccc4NC3=O)o2)C[C@H](C)O1` [Example 284], less than 6.10.
